Measured values: US10501752B2, “Herbicide tolerant cotton event pDAB4468.19.10.3” (Dow AgroSciences LLC, priority 2012, dated 2019)

Legend:
Type in all cases: in vivo, Gossypium hirsutum
[1] = system: non-transformed Coker 310 variety of cotton (WT); test: Butanoic acids of triclopyr and fluroxypyr greenhouse trials, negative control plants (% injury); conditions: 2-3 leaf stage
Procedure: (§1) Herbicide tolerance was assessed following a single post-emergence application of the two molecules. Seed from cotton event pDAB4468.19.10.3 were heat treated in a water bath at 82.5° C. for 1 minute and then planted in metro mix 360 media and grown in a greenhouse. The temperatures in the greenhouse averaged 27° C. and the photoperiod was set at 16 hours of light and eight hours of dark, with maximum light intensity. Plants were allowed to grow until the 2-3 leaf stage of development and a non-randomized study was conducted with four replications and three treatments for each herbicide. […] In addition, a crop oil concentrate was added to a final concentration of 1.25%. Plants were sprayed in a track sprayer calibrated to deliver 187 L/ha of the formulated technical material. A non-transformed Coker 310 variety of cotton was used as a negative control.

[2] = system: cotton event pDAB4468.19.10.3; test: Tolerance to triclopyr and fluroxypyr in greenhouse trials (percent visual injury); conditions: for % Injury: cotton event, 3 leaf stage, greenhouse
Procedure: (§2) The tolerance of cotton event pDAB4468.19.10.3 to post-emergence applications of the pyridyloxyacetic acid herbicides, triclopyr and fluroxypyr, was studied in greenhouse trials. Herbicide tolerance was assessed following a single post-emergence application of triclopyr or fluroxypyr. Seed from cotton event pDAB4468.19.10.3 were heat treated in a water bath at 82.5° C. for 1 minute and then planted in metro mix 360 media and grown in a greenhouse. The temperatures in the greenhouse averaged 27° C. and the photoperiod was set at 16 hours of light and eight hours of dark, with maximum light intensity. Plants were allowed to grow until the 3 leaf stage of development and a non-randomized study was conducted with three replications and three treatments for each herbicide. Plants were sprayed in a track sprayer calibrated to deliver 187 L/ha of the commercial formulations of triclopyr (Garlon 4TM, Dow AgroSciences, Indianapolis, Ind.) and fluroxypyr ([…], Dow AgroSciences, Indianapolis, Ind.). A non-transformed Coker 310 variety of cotton was used as a negative control.

[3] = system: cotton event pDAB4468.19.10.3 (aad-12); test: Tolerance to butanoic acids of triclopyr and fluroxypyr in greenhouse trials (% injury); conditions: 2-3 leaf stage
Procedure: as §1

[4] = system: non-transformed Coker 310 variety of cotton; test: Triclopyr and fluroxypyr greenhouse trials, negative control plants (percent visual injury); conditions: 3 leaf stage
Procedure: as §2

## O=C(O)COc1nc(Cl)c(Cl)cc1Cl [Triclopyr, triclopyr]
[1]; 140 g ai/ha, 1 DAA
  % Injury: 24.3a %
[1]; 140 g ai/ha, 3 DAA
  % Injury: 30a %
[1]; 140 g ai/ha, 6 DAA
  % Injury: 33.8a %
[1]; 140 g ai/ha, 6 HAA
  % Injury: 20.8a %
[1]; 140 g ai/ha, 14 DAA
  % Injury: 56.3ab %
[1]; 280 g ai/ha, 1 DAA
  % Injury: 23a %
[1]; 280 g ai/ha, 3 DAA
  % Injury: 32.5a %
[1]; 280 g ai/ha, 6 DAA
  % Injury: 33.8a %
[1]; 280 g ai/ha, 6 HAA
  % Injury: 20.3a %
[1]; 280 g ai/ha, 14 DAA
  % Injury: 60ab %
[1]; 560 g ai/ha, 1 DAA
  % Injury: 24.5a %
[1]; 560 g ai/ha, 3 DAA
  % Injury: 32.5a %
[1]; 560 g ai/ha, 6 DAA
  % Injury: 35a %
[1]; 560 g ai/ha, 6 HAA
  % Injury: 21.8a %
[1]; 560 g ai/ha, 14 DAA
  % Injury: 67.5a %
[2]; 140 g ae/ha, 3 DAA
  % Injury: 13.0 c %
[2]; 140 g ae/ha, 11 DAA
  % Injury: 3.5 b %
[2]; 280 g ae/ha, 3 DAA
  % Injury: 16.5 b %
[2]; 280 g ae/ha, 11 DAA
  % Injury: 3.3 b %
[2]; 560 g ae/ha, 3 DAA
  % Injury: 19.5 a %
[2]; 560 g ae/ha, 11 DAA
  % Injury: 3.3 b %
[3]; 140 g ai/ha, 1 DAA
  % Injury: 8.8a %
[3]; 140 g ai/ha, 3 DAA
  % Injury: 2a %
[3]; 140 g ai/ha, 6 DAA
  % Injury: 2.8a %
[3]; 140 g ai/ha, 6 HAA
  % Injury: 19.5a %
[3]; 140 g ai/ha, 14 DAA
  % Injury: 0a %
[3]; 280 g ai/ha, 1 DAA
  % Injury: 8a %
[3]; 280 g ai/ha, 3 DAA
  % Injury: 1.8a %
[3]; 280 g ai/ha, 6 DAA
  % Injury: 0.5a %
[3]; 280 g ai/ha, 6 HAA
  % Injury: 15.8a %
[3]; 280 g ai/ha, 14 DAA
  % Injury: 0a %
[3]; 560 g ai/ha, 1 DAA
  % Injury: 9.5a %
[3]; 560 g ai/ha, 3 DAA
  % Injury: 3.5a %
[3]; 560 g ai/ha, 6 DAA
  % Injury: 3.5a %
[3]; 560 g ai/ha, 6 HAA
  % Injury: 17.3a %
[3]; 560 g ai/ha, 14 DAA
  % Injury: 0a %
[4]; 140 g ae/ha, 3 DAA
  % Injury: 33.8 a %
[4]; 140 g ae/ha, 11 DAA
  % Injury: 36.3 b %
[4]; 280 g ae/ha, 3 DAA
  % Injury: 33.8 a %
[4]; 280 g ae/ha, 11 DAA
  % Injury: 40.0 ab %
[4]; 560 g ae/ha, 3 DAA
  % Injury: 36.3 a %
[4]; 560 g ae/ha, 11 DAA
  % Injury: 48.8 a %

## O=C(O)CCCOc1nc(Cl)c(Cl)cc1Cl [Triclopyr-b, triclopyr-B]
[1]; 140 g ai/ha, 1 DAA
  % Injury: 20.5a %
[1]; 140 g ai/ha, 3 DAA
  % Injury: 26.7a %
[1]; 140 g ai/ha, 6 DAA
  % Injury: 25b %
[1]; 140 g ai/ha, 6 HAA
  % Injury: 12.8b %
[1]; 140 g ai/ha, 14 DAA
  % Injury: 47.5b %
[1]; 280 g ai/ha, 1 DAA
  % Injury: 21.5a %
[1]; 280 g ai/ha, 3 DAA
  % Injury: 27.5a %
[1]; 280 g ai/ha, 6 DAA
  % Injury: 33.8a %
[1]; 280 g ai/ha, 6 HAA
  % Injury: 7.3b %
[1]; 280 g ai/ha, 14 DAA
  % Injury: 57.5ab %
[1]; 560 g ai/ha, 1 DAA
  % Injury: 18.8a %
[1]; 560 g ai/ha, 3 DAA
  % Injury: 33.8a %
[1]; 560 g ai/ha, 6 DAA
  % Injury: 35a %
[1]; 560 g ai/ha, 6 HAA
  % Injury: 8.3b %
[1]; 560 g ai/ha, 14 DAA
  % Injury: 51.3ab %
[3]; 140 g ai/ha, 1 DAA
  % Injury: 0.5b %
[3]; 140 g ai/ha, 3 DAA
  % Injury: 1a %
[3]; 140 g ai/ha, 6 DAA
  % Injury: 1.5a %
[3]; 140 g ai/ha, 6 HAA
  % Injury: 3.8c %
[3]; 140 g ai/ha, 14 DAA
  % Injury: 0a %
[3]; 280 g ai/ha, 1 DAA
  % Injury: 2b %
[3]; 280 g ai/ha, 3 DAA
  % Injury: 2a %
[3]; 280 g ai/ha, 6 DAA
  % Injury: 2.8a %
[3]; 280 g ai/ha, 6 HAA
  % Injury: 5.3c %
[3]; 280 g ai/ha, 14 DAA
  % Injury: 0a %
[3]; 560 g ai/ha, 1 DAA
  % Injury: 2.8b %
[3]; 560 g ai/ha, 3 DAA
  % Injury: 3.5a %
[3]; 560 g ai/ha, 6 DAA
  % Injury: 4.3a %
[3]; 560 g ai/ha, 6 HAA
  % Injury: 8.5b %
[3]; 560 g ai/ha, 14 DAA
  % Injury: 0a %

## Nc1c(Cl)c(F)nc(OCCCC(=O)O)c1Cl [Fluroxypyr-b, fluroxypyr-B]
[1]; 140 g ai/ha, 1 DAA
  % Injury: 21.8a %
[1]; 140 g ai/ha, 3 DAA
  % Injury: 32.5bc %
[1]; 140 g ai/ha, 6 DAA
  % Injury: 37.5a %
[1]; 140 g ai/ha, 6 HAA
  % Injury: 17.8b %
[1]; 140 g ai/ha, 14 DAA
  % Injury: 56.3b %
[1]; 280 g ai/ha, 1 DAA
  % Injury: 24.3a %
[1]; 280 g ai/ha, 3 DAA
  % Injury: 33.8bc %
[1]; 280 g ai/ha, 6 DAA
  % Injury: 41.3a %
[1]; 280 g ai/ha, 6 HAA
  % Injury: 21.3ab %
[1]; 280 g ai/ha, 14 DAA
  % Injury: 62.5ab %
[1]; 560 g ai/ha, 1 DAA
  % Injury: 22.3a %
[1]; 560 g ai/ha, 3 DAA
  % Injury: 31.3c %
[1]; 560 g ai/ha, 6 DAA
  % Injury: 41.3a %
[1]; 560 g ai/ha, 6 HAA
  % Injury: 20ab %
[1]; 560 g ai/ha, 14 DAA
  % Injury: 61.3ab %
[3]; 140 g ai/ha, 1 DAA
  % Injury: 3b %
[3]; 140 g ai/ha, 3 DAA
  % Injury: 2d %
[3]; 140 g ai/ha, 6 DAA
  % Injury: 2c %
[3]; 140 g ai/ha, 6 HAA
  % Injury: 6.5b %
[3]; 140 g ai/ha, 14 DAA
  % Injury: 0c %
[3]; 280 g ai/ha, 1 DAA
  % Injury: 2b %
[3]; 280 g ai/ha, 3 DAA
  % Injury: 2.3d %
[3]; 280 g ai/ha, 6 DAA
  % Injury: 2.8c %
[3]; 280 g ai/ha, 6 HAA
  % Injury: 7.8b %
[3]; 280 g ai/ha, 14 DAA
  % Injury: 0c %
[3]; 560 g ai/ha, 1 DAA
  % Injury: 3.5b %
[3]; 560 g ai/ha, 3 DAA
  % Injury: 2d %
[3]; 560 g ai/ha, 6 DAA
  % Injury: 2.8c %
[3]; 560 g ai/ha, 6 HAA
  % Injury: 8b %
[3]; 560 g ai/ha, 14 DAA
  % Injury: 2c %

## Nc1c(Cl)c(F)nc(OCC(=O)O)c1Cl [Fluroxypyr, fluroxypyr]
[1]; 140 g ai/ha, 1 DAA
  % Injury: 24.3a %
[1]; 140 g ai/ha, 3 DAA
  % Injury: 32.5bc %
[1]; 140 g ai/ha, 6 DAA
  % Injury: 38.8a %
[1]; 140 g ai/ha, 6 HAA
  % Injury: 23.8a %
[1]; 140 g ai/ha, 14 DAA
  % Injury: 60ab %
[1]; 280 g ai/ha, 1 DAA
  % Injury: 25a %
[1]; 280 g ai/ha, 3 DAA
  % Injury: 37.5ab %
[1]; 280 g ai/ha, 6 DAA
  % Injury: 38.8a %
[1]; 280 g ai/ha, 6 HAA
  % Injury: 22.5ab %
[1]; 280 g ai/ha, 14 DAA
  % Injury: 65ab %
[1]; 560 g ai/ha, 1 DAA
  % Injury: 23.5a %
[1]; 560 g ai/ha, 3 DAA
  % Injury: 38.8a %
[1]; 560 g ai/ha, 6 DAA
  % Injury: 41.3a %
[1]; 560 g ai/ha, 6 HAA
  % Injury: 22.5ab %
[1]; 560 g ai/ha, 14 DAA
  % Injury: 67.5a %
[2]; 70 g ae/ha, 3 DAA
  % Injury: 0.5 e %
[2]; 70 g ae/ha, 11 DAA
  % Injury: 2.3 b %
[2]; 140 g ae/ha, 3 DAA
  % Injury: 0.5 e %
[2]; 140 g ae/ha, 11 DAA
  % Injury: 2.5 b %
[2]; 280 g ae/ha, 3 DAA
  % Injury: 6.5 d %
[2]; 280 g ae/ha, 11 DAA
  % Injury: 6.3 a %
[2]; by 3 DAA
  herbicide level to which the event provides tolerance: up to 280 g ae/ha
[3]; 140 g ai/ha, 1 DAA
  % Injury: 21.5a %
[3]; 140 g ai/ha, 3 DAA
  % Injury: 8.8c %
[3]; 140 g ai/ha, 6 DAA
  % Injury: 7.8b %
[3]; 140 g ai/ha, 6 HAA
  % Injury: 19a %
[3]; 140 g ai/ha, 14 DAA
  % Injury: 21.3ab %
[3]; 280 g ai/ha, 1 DAA
  % Injury: 19.8a %
[3]; 280 g ai/ha, 3 DAA
  % Injury: 15.3b %
[3]; 280 g ai/ha, 6 DAA
  % Injury: 11.5a %
[3]; 280 g ai/ha, 6 HAA
  % Injury: 14a %
[3]; 280 g ai/ha, 14 DAA
  % Injury: 17.5b %
[3]; 560 g ai/ha, 1 DAA
  % Injury: 21.5a %
[3]; 560 g ai/ha, 3 DAA
  % Injury: 21.3a %
[3]; 560 g ai/ha, 6 DAA
  % Injury: 14.3a %
[3]; 560 g ai/ha, 6 HAA
  % Injury: 17a %
[3]; 560 g ai/ha, 14 DAA
  % Injury: 25a %
[4]; 70 g ae/ha, 3 DAA
  % Injury: 11.3 c %
[4]; 70 g ae/ha, 11 DAA
  % Injury: 43.8 ab %
[4]; 140 g ae/ha, 3 DAA
  % Injury: 27.3 b %
[4]; 140 g ae/ha, 11 DAA
  % Injury: 36.3 b %
[4]; 280 g ae/ha, 3 DAA
  % Injury: 33.3 a %
[4]; 280 g ae/ha, 11 DAA
  % Injury: 43.8 ab %
